Experimental data from the supplement of paper PMC10627819.

How the values were obtained:
Test in all cases: fitness (endpoint OD595 vs no drug) (fraction); higher = more growth
S. aureus DSM 20231 = system: S. aureus DSM 20231
In short: (§1)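 Bacterial fitness was scored as optical density at the stationary-phase transition relative to the robust mean of no-drug control wells. Scores are capped at 1. The growth data were OD595 readings every 30 min for 14 h at 37 °C, background-subtracted against the first reading, from 384-well plates inoculated at OD595 0.01 in TSB, LB Lennox or CY.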

S. pneumoniae D39V = system: S. pneumoniae D39V
In short: as §1

B. subtilis 168 = system: B. subtilis 168
In short: as §1
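Note: OD595 on entry to stationary phase over no-drug wells; at most 1.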

CC(=O)Oc1ccccc1C(=O)O [Acetylsalicylic acid] + Cc1onc(-c2ccccc2)c1C(=O)N[C@@H]1C(=O)N2[C@@H]1SC(C)(C)[C@@H]2C(=O)O [Oxacillin]
fitness
Conditions | first compound 250 µg/mL | first compound 500 µg/mL | first compound 1000 µg/mL
S. aureus DSM 20231, partner 0.0156 µg/mL | 0.763 | 0.656 | 0.561
S. aureus DSM 20231, partner 0.0312 µg/mL | 0.583 | 0.548 | 0.519
S. aureus DSM 20231, partner 0.0625 µg/mL | 0.494 | 0.508 | 0.393
S. pneumoniae D39V, partner 0.005 µg/mL | 0.987 | 0.959 | 0.921
S. pneumoniae D39V, partner 0.01 µg/mL | 0.969 | 0.984 | –
S. pneumoniae D39V, partner 0.02 µg/mL | 0.886 | 0.91 | –
S. pneumoniae D39V, partner 0.04 µg/mL | 0.501 | 0.643 | –

CN(C)[C@@H]1C(O)=C(C(N)=O)C(=O)[C@@]2(O)C(O)=C3C(=O)c4c(O)ccc(Cl)c4[C@@](C)(O)[C@H]3C[C@@H]12 [Chlortetracycline] + COc1cc(Cc2cnc(N)nc2N)cc(OC)c1OC [Trimethoprim]
one replicate
Conditions | fitness
B. subtilis 168, first compound 0.0475 µg/mL, partner 0.1 µg/mL | 0.82
B. subtilis 168, first compound 0.0475 µg/mL, partner 0.2 µg/mL | 0.735
B. subtilis 168, first compound 0.0475 µg/mL, partner 0.4 µg/mL | 0.637
B. subtilis 168, first compound 0.0475 µg/mL, partner 1 µg/mL | 0.296
B. subtilis 168, first compound 0.0475 µg/mL, partner 2 µg/mL | 0.305
B. subtilis 168, first compound 0.095 µg/mL, partner 0.1 µg/mL | 0.81
B. subtilis 168, first compound 0.095 µg/mL, partner 0.2 µg/mL | 0.707
B. subtilis 168, first compound 0.095 µg/mL, partner 0.4 µg/mL | 0.531
B. subtilis 168, first compound 0.095 µg/mL, partner 1 µg/mL | 0.132
B. subtilis 168, first compound 0.095 µg/mL, partner 2 µg/mL | 0.119
B. subtilis 168, first compound 0.19 µg/mL, partner 0.1 µg/mL | 0.599
B. subtilis 168, first compound 0.19 µg/mL, partner 0.2 µg/mL | 0.421
B. subtilis 168, first compound 0.19 µg/mL, partner 0.4 µg/mL | 0.279
B. subtilis 168, first compound 0.19 µg/mL, partner 1 µg/mL | 0.0652
B. subtilis 168, first compound 0.19 µg/mL, partner 2 µg/mL | 0.0699
S. aureus DSM 20231, first compound 0.006 µg/mL, partner 0.125 µg/mL | 0.656
S. aureus DSM 20231, first compound 0.006 µg/mL, partner 0.25 µg/mL | 0.606
S. aureus DSM 20231, first compound 0.006 µg/mL, partner 0.5 µg/mL | 0.509
S. aureus DSM 20231, first compound 0.048 µg/mL, partner 0.125 µg/mL | 0.0947

fitness
Conditions | partner 0.125 µg/mL | partner 0.25 µg/mL | partner 0.5 µg/mL | partner 1 µg/mL
B. subtilis 168, first compound 0.0475 µg/mL | 0.762 | 0.62 | – | –
B. subtilis 168, first compound 0.095 µg/mL | 0.673 | 0.548 | – | –
B. subtilis 168, first compound 0.19 µg/mL | 0.52 | 0.406 | 0.279 | –
S. aureus DSM 20231, first compound 0.012 µg/mL | 0.47 | 0.545 | 0.36 | 0.0767
S. aureus DSM 20231, first compound 0.024 µg/mL | 0.159 | – | 0.171 | 0.0593
S. aureus DSM 20231, first compound 0.048 µg/mL | – | 0.117 | 0.0724 | 0.042

CC(=O)Oc1ccccc1C(=O)O [Acetylsalicylic acid] + CO/N=C(\C(=O)N[C@@H]1C(=O)N2C(C(=O)[O-])=C(C[N+]3(C)CCCC3)CS[C@H]12)c1csc(N)n1 [Cefepime]
fitness
Conditions | first compound 250 µg/mL | first compound 500 µg/mL | first compound 1000 µg/mL
S. aureus DSM 20231, partner 0.125 µg/mL | 0.856 | 0.712 | 0.624
S. aureus DSM 20231, partner 0.25 µg/mL | 0.83 | 0.683 | –
S. aureus DSM 20231, partner 0.5 µg/mL | 0.78 | 0.666 | 0.612
S. pneumoniae D39V, partner 0.007 µg/mL | 0.988 | ≥ 1 | 0.927
S. pneumoniae D39V, partner 0.0078 µg/mL | 0.992 | ≥ 1 | 0.915
S. pneumoniae D39V, partner 0.014 µg/mL | 0.99 | 0.995 | 0.969
S. pneumoniae D39V, partner 0.0155 µg/mL | ≥ 1 | ≥ 1 | 0.898
S. pneumoniae D39V, partner 0.028 µg/mL | 0.927 | 0.896 | 0.865
S. pneumoniae D39V, partner 0.031 µg/mL | 0.964 | ≥ 1 | 0.888

CC(=O)Oc1ccccc1C(=O)O [Acetylsalicylic acid] + COc1c(N2C[C@@H]3CCCN[C@@H]3C2)c(F)cc2c(=O)c(C(=O)O)cn(C3CC3)c12 [Moxifloxacin]
fitness
Conditions | first compound 250 µg/mL | first compound 500 µg/mL | first compound 1000 µg/mL
S. aureus DSM 20231, partner 0.0075 µg/mL | 0.799 | 0.703 | 0.577
S. aureus DSM 20231, partner 0.015 µg/mL | 0.7 | 0.656 | 0.58
S. aureus DSM 20231, partner 0.03 µg/mL | 0.649 | 0.623 | 0.578
S. pneumoniae D39V, partner 0.005 µg/mL | 0.975 | 0.96 | –
S. pneumoniae D39V, partner 0.01 µg/mL | 0.98 | 0.987 | 0.812
S. pneumoniae D39V, partner 0.02 µg/mL | 0.932 | 0.94 | 0.829
S. pneumoniae D39V, partner 0.0312 µg/mL | 0.188 | 0.192 | 0.216
S. pneumoniae D39V, partner 0.0625 µg/mL | 0.17 | 0.142 | 0.137
S. pneumoniae D39V, partner 0.125 µg/mL | 0.0443 | 0.0397 | 0.0308

fitness, S. aureus DSM 20231, one replicate
Conditions | first compound 250 µg/mL | first compound 500 µg/mL | first compound 1000 µg/mL
partner 0.06 µg/mL | 0.647 | 0.627 | 0.584
partner 0.12 µg/mL | 0.532 | 0.536 | 0.529

CC(=O)Oc1ccccc1C(=O)O [Acetylsalicylic acid] + COc1ccc(C[C@H](N)C(=O)N[C@H]2[C@@H](O)[C@H](n3cnc4c(N(C)C)ncnc43)O[C@@H]2CO)cc1 [Puromycin]
fitness
Conditions | partner 0.39 µg/mL | partner 0.78 µg/mL | partner 1 µg/mL | partner 1.56 µg/mL | partner 2 µg/mL | partner 4 µg/mL
S. aureus DSM 20231, first compound 250 µg/mL | 0.894 | 0.947 | – | 0.88 | – | –
S. aureus DSM 20231, first compound 500 µg/mL | 0.804 | 0.768 | – | 0.799 | – | –
S. pneumoniae D39V, first compound 250 µg/mL | – | – | ≥ 1 | – | 0.954 | 0.898
S. pneumoniae D39V, first compound 500 µg/mL | – | – | 0.915 | – | 0.935 | 0.836
S. pneumoniae D39V, first compound 1000 µg/mL | – | – | 0.889 | – | 0.815 | 0.622

fitness, S. aureus DSM 20231, one replicate
Conditions | first compound 250 µg/mL | first compound 500 µg/mL | first compound 1000 µg/mL
partner 3.12 µg/mL | 0.84 | 0.791 | 0.0591
partner 6.24 µg/mL | 0.821 | 0.767 | 0.0807

CC(=O)Oc1ccccc1C(=O)O [Acetylsalicylic acid] + CN(N=O)C(=O)N[C@@H](C=O)[C@@H](O)[C@H](O)[C@H](O)CO [Streptozotocin]
fitness
Conditions | first compound 250 µg/mL | first compound 500 µg/mL | first compound 1000 µg/mL
S. aureus DSM 20231, partner 0.15 µg/mL | 0.778 | 0.635 | –
S. aureus DSM 20231, partner 0.3 µg/mL | 0.771 | 0.584 | 0.484
S. aureus DSM 20231, partner 0.6 µg/mL | 0.64 | 0.578 | 0.414
S. pneumoniae D39V, partner 1.2 µg/mL | 0.933 | 0.91 | –
S. pneumoniae D39V, partner 2.4 µg/mL | 0.934 | 0.9 | –
S. pneumoniae D39V, partner 4.8 µg/mL | 0.933 | 0.824 | –

CC(=O)Oc1ccccc1C(=O)O [Acetylsalicylic acid] + C[C@@H]1O[C@@H]1P(=O)(O)O [Fosfomycin]
fitness
Conditions | first compound 250 µg/mL | first compound 500 µg/mL | first compound 1000 µg/mL
S. aureus DSM 20231, partner 0.781 µg/mL | 0.621 | 0.619 | 0.51
S. aureus DSM 20231, partner 1.562 µg/mL | 0.537 | 0.546 | 0.438
S. aureus DSM 20231, partner 3.124 µg/mL | 0.487 | 0.452 | 0.283
S. pneumoniae D39V, partner 1.25 µg/mL | 0.989 | 0.955 | 0.862
S. pneumoniae D39V, partner 2.5 µg/mL | 0.939 | 0.939 | 0.82
S. pneumoniae D39V, partner 5 µg/mL | 0.831 | 0.88 | 0.791
